In series [1] the target is cAMP and cAMP-inhibited cGMP 3',5'-cyclic phosphodiesterase 10A (Homo sapiens, UniProt Q9Y233). Nature of the series: Inhibition of human recombinant full length PDE10A expressed in sf9 cells by scintillation proximity assay. (Scintillation proximity formats need no separation of bound from free tracer.)
In series [2] the target is Dual specificity calcium/calmodulin-dependent 3',5'-cyclic nucleotide phosphodiesterase 1B (Homo sapiens, UniProt Q01064). Nature of the series: Inhibition of human PDE1B.
The target in series [3] is cGMP-dependent 3',5'-cyclic phosphodiesterase (Homo sapiens, UniProt O00408). The series can be described thus: Inhibition of human PDE2A.
Chain of cGMP-dependent 3',5'-cyclic phosphodiesterase (O00408 whole entry): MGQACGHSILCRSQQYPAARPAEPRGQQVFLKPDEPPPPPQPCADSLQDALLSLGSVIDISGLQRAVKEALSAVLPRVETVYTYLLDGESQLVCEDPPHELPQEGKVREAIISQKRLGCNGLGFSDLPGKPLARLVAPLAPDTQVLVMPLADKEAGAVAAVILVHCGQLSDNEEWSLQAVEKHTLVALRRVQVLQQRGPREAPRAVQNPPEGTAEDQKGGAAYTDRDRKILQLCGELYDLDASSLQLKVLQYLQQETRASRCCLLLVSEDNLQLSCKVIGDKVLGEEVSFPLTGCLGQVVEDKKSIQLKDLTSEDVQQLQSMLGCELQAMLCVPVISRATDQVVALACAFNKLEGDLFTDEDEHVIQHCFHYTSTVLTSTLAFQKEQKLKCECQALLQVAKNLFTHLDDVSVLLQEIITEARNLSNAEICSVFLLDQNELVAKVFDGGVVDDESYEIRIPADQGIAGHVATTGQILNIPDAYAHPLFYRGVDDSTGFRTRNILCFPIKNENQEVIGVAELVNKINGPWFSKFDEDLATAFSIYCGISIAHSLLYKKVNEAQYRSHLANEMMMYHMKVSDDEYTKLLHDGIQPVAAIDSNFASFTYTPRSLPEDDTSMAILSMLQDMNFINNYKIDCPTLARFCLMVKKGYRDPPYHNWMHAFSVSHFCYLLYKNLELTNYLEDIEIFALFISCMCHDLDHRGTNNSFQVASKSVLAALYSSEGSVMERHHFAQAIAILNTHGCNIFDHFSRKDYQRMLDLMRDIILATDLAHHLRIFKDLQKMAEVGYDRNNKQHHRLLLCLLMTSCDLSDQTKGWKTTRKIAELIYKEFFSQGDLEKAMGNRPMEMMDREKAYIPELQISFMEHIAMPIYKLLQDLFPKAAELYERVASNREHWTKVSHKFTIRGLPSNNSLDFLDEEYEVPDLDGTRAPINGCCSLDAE
Series [4] addresses cGMP-inhibited 3',5'-cyclic phosphodiesterase 3B (Homo sapiens, UniProt Q13370). Nature of the series: Inhibition of human PDE3B.
The target in series [5] is 3',5'-cyclic-AMP phosphodiesterase 4D (Homo sapiens, UniProt Q08499). The series can be described thus: Inhibition of human PDE4D.
The target in series [6] is cGMP-specific 3',5'-cyclic phosphodiesterase (Homo sapiens, UniProt O76074). Nature of the series: Inhibition of human PDE5A.
Series [7] addresses High affinity 3',5'-cyclic-AMP phosphodiesterase 7A (Homo sapiens, UniProt Q13946). Nature of the series: Inhibition of human PDE7A.
Series [8] addresses High affinity cGMP-specific 3',5'-cyclic phosphodiesterase 9A (Homo sapiens, UniProt O76083). The series can be described thus: Inhibition of human PDE9A.
Series [9] deals with 3',5'-cyclic phosphodiesterase. Nature of the series: Inhibition of human PDE. Type of series: protein assay.
The species named for series [10] is Homo sapiens. The series can be described thus: Selectivity ratio of IC50 for human PDE1B to IC50 for human recombinant full length PDE10A expressed in sf9 cells.
The species named for series [11] is Homo sapiens. Nature of the series: Selectivity ratio of IC50 for human PDE2A to IC50 for human recombinant full length PDE10A expressed in sf9 cells.
The species entered for series [12] is Homo sapiens. The series can be described thus: Selectivity ratio of IC50 for human PDE3B to IC50 for human recombinant full length PDE10A expressed in sf9 cells.
The species entered for series [13] is Homo sapiens. The series can be described thus: Selectivity ratio of IC50 for human PDE4D to IC50 for human recombinant full length PDE10A expressed in sf9 cells.
For series [14], the species on record is Homo sapiens. Nature of the series: Selectivity ratio of IC50 for human PDE5A to IC50 for human recombinant full length PDE10A expressed in sf9 cells.
Series [15] is filed under the species Homo sapiens. The series can be described thus: Selectivity ratio of IC50 for human PDE7A to IC50 for human recombinant full length PDE10A expressed in sf9 cells.
The species named for series [16] is Homo sapiens. The series can be described thus: Selectivity ratio of IC50 for human PDE9A to IC50 for human recombinant full length PDE10A expressed in sf9 cells.
The target of series [17] is Cytochrome P450 3A4 (Homo sapiens, UniProt P08684). Nature of the series: Inhibition of recombinant CYP3A4 (unknown origin). The format is ADME.
Chain of Cytochrome P450 3A4 (P08684 whole entry): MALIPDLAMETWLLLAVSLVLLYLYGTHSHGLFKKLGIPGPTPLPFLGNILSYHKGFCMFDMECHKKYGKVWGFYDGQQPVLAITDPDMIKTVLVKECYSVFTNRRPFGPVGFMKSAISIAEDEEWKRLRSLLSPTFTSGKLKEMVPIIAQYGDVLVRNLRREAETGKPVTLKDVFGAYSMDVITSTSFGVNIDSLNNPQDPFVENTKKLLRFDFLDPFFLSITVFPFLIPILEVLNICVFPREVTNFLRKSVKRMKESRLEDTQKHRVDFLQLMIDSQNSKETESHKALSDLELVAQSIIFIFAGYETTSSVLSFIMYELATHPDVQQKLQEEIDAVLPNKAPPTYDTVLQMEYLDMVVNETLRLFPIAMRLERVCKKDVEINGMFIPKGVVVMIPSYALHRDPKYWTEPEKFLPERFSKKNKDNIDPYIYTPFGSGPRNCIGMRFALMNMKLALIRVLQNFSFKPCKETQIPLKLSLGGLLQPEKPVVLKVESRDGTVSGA
Series [18] has as its target Cytochrome P450 2C9 (Homo sapiens, UniProt P11712). The series can be described thus: Inhibition of recombinant CYP2C9 (unknown origin). Type of series: ADME.
Series [19] concerns the target Cytochrome P450 2C19 (Homo sapiens, UniProt P33261). The series can be described thus: Inhibition of recombinant CYP2C19 (unknown origin). The format is ADME.
The target of series [20] is Cytochrome P450 2D6 (Homo sapiens, UniProt P10635). Nature of the series: Inhibition of recombinant CYP2D6 (unknown origin). Type of series: ADME.
For series [21], the target named is T1, Cytochrome P450 1A2 (Homo sapiens, UniProt P05177).
T1 sequence (P05177 whole entry): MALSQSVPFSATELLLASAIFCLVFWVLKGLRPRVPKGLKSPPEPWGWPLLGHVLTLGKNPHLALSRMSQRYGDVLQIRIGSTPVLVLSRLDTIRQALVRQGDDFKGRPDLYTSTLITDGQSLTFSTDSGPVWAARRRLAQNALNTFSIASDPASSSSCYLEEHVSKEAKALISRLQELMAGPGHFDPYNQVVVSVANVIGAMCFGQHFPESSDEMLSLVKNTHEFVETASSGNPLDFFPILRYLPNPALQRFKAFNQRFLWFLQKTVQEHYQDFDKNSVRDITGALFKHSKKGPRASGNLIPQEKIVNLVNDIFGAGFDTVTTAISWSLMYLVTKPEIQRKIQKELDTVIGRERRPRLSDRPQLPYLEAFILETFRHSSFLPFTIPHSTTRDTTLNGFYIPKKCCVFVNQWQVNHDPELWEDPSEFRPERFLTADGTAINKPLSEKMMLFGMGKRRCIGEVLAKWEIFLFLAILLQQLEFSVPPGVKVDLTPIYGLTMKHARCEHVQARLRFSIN
Nature of the series: Inhibition of recombinant CYP1A2 (unknown origin). The format is ADME.

Series [22] in a line: Stability in human liver microsomes. The format is ADME, Microsome. (In general: Microsomes from liver hold many membrane-bound enzymes, among them those of drug oxidation.)
Series [23] in a line: Stability in rat liver microsomes. Type of series: ADME, Microsome.
Series [24] in a line: Stability in dog liver microsomes. Type of series: ADME, Canis lupus familiaris, Microsome.
A short description of series [25]: Stability in mouse liver microsomes. The format is ADME, Microsome.
The nature of series [26]: Oral bioavailability in rat at 10 mg/kg. The format is ADME, organism-based. Particulars: in vivo.
Series [27] is described as follows: Cardiotoxicity in anesthetized guinea pig. The format is toxicity, Cavia porcellus.
For series [28], the target named is Voltage-gated inwardly rectifying potassium channel KCNH2 (Homo sapiens, UniProt Q12809). Nature of the series: Inhibition of human ERG.
Chain of Voltage-gated inwardly rectifying potassium channel KCNH2 (Q12809 whole entry): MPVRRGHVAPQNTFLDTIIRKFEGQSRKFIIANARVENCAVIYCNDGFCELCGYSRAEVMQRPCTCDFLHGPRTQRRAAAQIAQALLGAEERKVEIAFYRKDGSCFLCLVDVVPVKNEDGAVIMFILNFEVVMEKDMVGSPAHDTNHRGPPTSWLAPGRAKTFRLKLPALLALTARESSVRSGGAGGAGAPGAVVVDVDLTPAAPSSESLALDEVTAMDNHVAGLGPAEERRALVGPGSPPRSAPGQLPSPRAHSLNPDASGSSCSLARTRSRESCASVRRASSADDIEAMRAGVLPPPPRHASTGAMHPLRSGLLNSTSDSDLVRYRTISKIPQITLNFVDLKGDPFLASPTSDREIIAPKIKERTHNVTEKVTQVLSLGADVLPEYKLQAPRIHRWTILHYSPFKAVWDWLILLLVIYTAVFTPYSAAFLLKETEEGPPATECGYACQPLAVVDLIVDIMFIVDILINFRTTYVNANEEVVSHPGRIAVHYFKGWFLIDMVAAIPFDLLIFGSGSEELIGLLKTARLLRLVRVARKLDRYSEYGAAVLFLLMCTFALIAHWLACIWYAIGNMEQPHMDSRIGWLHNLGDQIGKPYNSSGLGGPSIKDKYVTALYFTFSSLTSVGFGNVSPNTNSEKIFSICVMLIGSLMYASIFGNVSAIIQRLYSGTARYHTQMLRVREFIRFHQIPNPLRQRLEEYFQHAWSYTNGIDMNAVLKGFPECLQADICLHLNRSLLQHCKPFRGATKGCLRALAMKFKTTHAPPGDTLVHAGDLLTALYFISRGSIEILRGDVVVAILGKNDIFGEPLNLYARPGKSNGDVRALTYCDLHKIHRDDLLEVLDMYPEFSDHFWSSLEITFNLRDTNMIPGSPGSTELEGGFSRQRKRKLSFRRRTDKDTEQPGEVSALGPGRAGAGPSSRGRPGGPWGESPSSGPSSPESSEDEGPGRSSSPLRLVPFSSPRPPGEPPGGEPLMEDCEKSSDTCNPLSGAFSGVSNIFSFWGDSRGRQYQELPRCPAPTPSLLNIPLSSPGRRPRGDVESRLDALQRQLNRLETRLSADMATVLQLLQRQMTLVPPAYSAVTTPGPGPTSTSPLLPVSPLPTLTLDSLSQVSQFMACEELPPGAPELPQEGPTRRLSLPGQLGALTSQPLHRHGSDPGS
Series [29] in a line: Stability in cynomolgus monkey liver microsomes. Type of series: ADME, Macaca fascicularis, Microsome.
Series [30] can be described thus: Clearance in rat at 10 mg/kg. The format is ADME, organism-based. Particulars: in vivo.
A short description of series [31]: Half life in rat at 10 mg/kg, iv. Type of series: ADME, organism-based. The conditions noted are these: in vivo.
Series [32] in a line: Cmax in rat at 10 mg/kg. Type of series: ADME, organism-based. On the set-up: dose 10 mg/kg. Particulars: in vivo.
Series [33] in a line: Volume of distribution in steady state in rat at 10 mg/kg. Type of series: ADME, organism-based. The conditions noted are these: in vivo, read-out: Vdss.
The species entered for series [34] is Rattus norvegicus. The series can be described thus: Induction of insulin secretion in rat pancreatic islets at 0.1 to 3 uM in presence of 3 mM glucose. Type of series: functional.
The species named for series [35] is Rattus norvegicus. The series can be described thus: Induction of insulin secretion in rat pancreatic islets at 0.1 to 3 uM in presence of 12 mM glucose. The format is functional.
In series [36] the test system is Pancreatic islet. The series can be described thus: Induction of insulin secretion in human pancreatic islets at 1 uM in presence of glucose. The format is functional, cell-based.
In series [37] the test system is Rattus norvegicus. Nature of the series: Antidiabetic activity in fasted Sprague-Dawley rat assessed as reduction in blood glucose level at 3 to 30 mg/kg, po administered 3 hrs prior to glucose challenge measured up to 2 hrs by OGTT. The format is functional, organism-based.
Series [38] relates to Mus musculus. The series can be described thus: Antidiabetic activity in ob/ob mouse assessed as reduction in blood glucose level at 5 to 20 mg/kg, po administered 3 hrs prior to glucose challenge measured up to 2 hrs by OGTT. Type of series: functional, organism-based.
Series [39] relates to Pancreatic islet. The series can be described thus: Induction of insulin secretion in human pancreatic islets at 30 mM in presence of glucose. The format is functional, cell-based.
Series [40] in a line: Ratio of drug level in brain to plasma (unknown origin) after 2 hrs. Type of series: ADME. Particulars: brain and plasma; read-out: BPR.
Series [41] has as its system Pancreatic islet. The series can be described thus: Induction of insulin secretion in human pancreatic islets at 15 mM in presence of glucose. Type of series: functional, cell-based.
Series [42] deals with Pancreatic islet. The series can be described thus: Induction of insulin secretion in human pancreatic islets at 2 to 12 mM. The format is functional, cell-based.

The source made the active and inactive calls. The rule behind the calls is not given here.

Chain of cAMP and cAMP-inhibited cGMP 3',5'-cyclic phosphodiesterase 10A (Q9Y233 whole entry): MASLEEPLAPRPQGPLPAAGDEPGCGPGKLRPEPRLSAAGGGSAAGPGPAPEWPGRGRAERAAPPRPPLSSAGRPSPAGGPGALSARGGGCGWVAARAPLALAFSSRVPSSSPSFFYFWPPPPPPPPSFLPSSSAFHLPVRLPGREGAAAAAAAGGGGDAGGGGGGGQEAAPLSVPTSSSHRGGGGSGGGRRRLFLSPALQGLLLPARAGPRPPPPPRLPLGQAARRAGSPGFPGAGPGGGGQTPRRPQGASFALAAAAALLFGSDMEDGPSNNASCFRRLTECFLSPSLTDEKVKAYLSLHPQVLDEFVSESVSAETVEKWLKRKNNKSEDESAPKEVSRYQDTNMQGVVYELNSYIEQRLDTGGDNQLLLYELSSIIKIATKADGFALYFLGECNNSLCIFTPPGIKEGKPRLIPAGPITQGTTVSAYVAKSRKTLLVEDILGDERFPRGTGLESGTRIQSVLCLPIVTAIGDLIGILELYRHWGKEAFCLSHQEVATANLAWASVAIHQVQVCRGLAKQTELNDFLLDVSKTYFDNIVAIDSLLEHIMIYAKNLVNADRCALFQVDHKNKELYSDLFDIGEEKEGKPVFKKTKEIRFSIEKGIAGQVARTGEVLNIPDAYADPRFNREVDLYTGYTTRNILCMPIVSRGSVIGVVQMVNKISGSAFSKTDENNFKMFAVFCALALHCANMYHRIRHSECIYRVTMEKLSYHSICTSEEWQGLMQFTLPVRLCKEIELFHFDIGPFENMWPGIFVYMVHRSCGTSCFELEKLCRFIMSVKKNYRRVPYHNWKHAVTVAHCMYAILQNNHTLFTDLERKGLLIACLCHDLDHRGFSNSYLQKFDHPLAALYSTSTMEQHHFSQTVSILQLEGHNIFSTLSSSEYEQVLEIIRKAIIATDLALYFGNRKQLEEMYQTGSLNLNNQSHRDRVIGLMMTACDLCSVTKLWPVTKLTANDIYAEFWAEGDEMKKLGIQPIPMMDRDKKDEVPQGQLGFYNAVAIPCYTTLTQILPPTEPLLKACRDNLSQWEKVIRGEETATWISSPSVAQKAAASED
Chain of High affinity 3',5'-cyclic-AMP phosphodiesterase 7A (Q13946 whole entry): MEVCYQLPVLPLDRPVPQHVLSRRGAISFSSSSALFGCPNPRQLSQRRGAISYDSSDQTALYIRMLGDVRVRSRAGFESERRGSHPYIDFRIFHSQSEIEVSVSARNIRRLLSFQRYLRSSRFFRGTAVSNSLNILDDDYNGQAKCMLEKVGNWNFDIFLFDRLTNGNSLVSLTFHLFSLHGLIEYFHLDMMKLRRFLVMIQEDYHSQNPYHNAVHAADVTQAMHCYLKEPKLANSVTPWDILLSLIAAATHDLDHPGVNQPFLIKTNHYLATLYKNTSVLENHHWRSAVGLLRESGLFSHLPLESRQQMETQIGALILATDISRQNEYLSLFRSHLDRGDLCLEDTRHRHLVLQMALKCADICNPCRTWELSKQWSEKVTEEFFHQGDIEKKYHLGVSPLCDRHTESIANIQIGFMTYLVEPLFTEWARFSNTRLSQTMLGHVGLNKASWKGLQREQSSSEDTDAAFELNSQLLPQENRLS
Chain of Cytochrome P450 2C9 (P11712 whole entry): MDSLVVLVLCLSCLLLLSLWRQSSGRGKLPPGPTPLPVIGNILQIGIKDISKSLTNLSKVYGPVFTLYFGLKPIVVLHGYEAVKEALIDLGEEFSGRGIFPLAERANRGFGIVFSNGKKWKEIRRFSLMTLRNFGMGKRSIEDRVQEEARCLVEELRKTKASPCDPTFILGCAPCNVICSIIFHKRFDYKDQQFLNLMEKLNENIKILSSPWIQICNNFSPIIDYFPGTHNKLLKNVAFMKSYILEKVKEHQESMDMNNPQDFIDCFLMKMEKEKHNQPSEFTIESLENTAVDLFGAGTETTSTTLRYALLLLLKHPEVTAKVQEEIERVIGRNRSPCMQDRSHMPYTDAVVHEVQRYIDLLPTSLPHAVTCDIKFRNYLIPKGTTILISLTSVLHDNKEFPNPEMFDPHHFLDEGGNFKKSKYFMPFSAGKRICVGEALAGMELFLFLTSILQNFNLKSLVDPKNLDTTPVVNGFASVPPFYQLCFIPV

Broadly, the IC50 is the concentration that inhibits the measured activity by half. The term bioavailability denotes the share of a dose that reaches the circulation, judged against a reference dose that is usually intravenous. For orientation: clearance means the volume of plasma or blood freed of the substance per unit of time. By half-life is commonly meant the time in which the quantity being followed falls by half. Broadly, the Cmax is the highest concentration seen after dosing. Take `O=C(O)c1ccc(-c2c(/C=C/c3ccc4ccccc4n3)nc3c(N4CCOCC4)ccnn23)cc1`: the IC50 in series [1] was 1.5 to 2 nM; in series [2], 6600 nM; in series [3] it was 5900 nM; in series [4], 6600 nM; in series [5], 4000 nM; in series [6], 5400 nM. The IC50 is 4200 nM in series [7]; above 10000 nM in [8]; 3000 nM in [9]; above 10000 nM in series [17]; above 10000 nM in [18]; above 10000 nM in series [19]. In addition, the IC50 in series [20] and in series [21] was above 10000 nM each time. The Ratio IC50 in series [10], in series [11], in [12], in series [13], in series [14] and in [15] was 200 each time. For the same compound, the Ratio IC50 in series [16] turned out to be 200. Besides, the Stability entry in [22], in series [23], in series [24], in [25] and in series [29] was “Stable” each time. In [26], the bioavailability is 44%. In [27], the Activity result is reported as “Non-Toxic”. For the same compound, the “inhibition (INH)” value in [28] is “Not Active”. The compound further had a clearance in [30] of 3.3 mL/min/kg. The half-life in series [31] lay in the range of 6 to 6.1 h. In [32], this compound displayed a Cmax of 2990 ng/mL. For the same compound, the Vd in series [33] came out at 0.47 L/kg. Besides, the result in [34], in series [35], in series [37] and in series [38] was inactive. For the same compound, the result in [36] was Active.
As for `[Cl-].[K+]`, the result in [39] was Active.
As for `Oc1nc(O)c(-c2ccc(-c3c(/C=C/c4ccc5ccccc5n4)nc4c(N5CCOCC5)ccnn34)cc2)o1`, the IC50 in series [1] came out at 8.5 nM. In addition, in series [40], the Kp at 2 h came to 0.01.
Consider `N=C(N)NCCC[C@H](N)C(=O)O`, for which the result in series [41] was Active.
In the case of `NS(=O)(=O)N1CCN(c2c(CSc3ccc4ccccc4n3)nc3c(N4CCOCC4)ccnn23)CC1`, the IC50 in series [1] was 13.8 nM. The Kp at 2 h in series [40] was found to be 0.31.
With `O=C(O)c1ccc(-c2c([C@H]3C[C@H](c4ccc5ccccc5n4)C3)nc3c(N4CCOCC4)ccnn23)cc1`, in series [1], the 50% inhibitory concentration (IC50) is 0.6 nM.
Still for that read-out and setting: to `O=c1[nH]c(-c2ccc(-c3c(/C=C/c4ccc5ccccc5n4)nc4c(N5CCOCC5)ccnn34)cc2)no1` belongs 3.3 nM.
For the compound `c1ccc2nc(SCc3nc4c(N5CCOCC5)ccnn4c3-c3ccc(N4CCNCC4)nc3)ccc2c1`, in series [40], the Kp at 2 h worked out at 0.82.
`COc1ccc(Cl)cc1C(=O)NCCc1ccc(S(=O)(=O)NC(=O)NC2CCCCC2)cc1`: the outcome in [36] was Active.
Regarding `c1ccc2nc(Cc3nc4c(N5CCOCC5)ccnn4c3-c3ccc(N4CCNCC4)nc3)ccc2c1`, in series [1], the IC50 is 123 nM. Further, the Kp at 2 h in series [40] was determined as 0.45.
Consider `OC[C@H]1OC(O)[C@H](O)[C@@H](O)[C@@H]1O` (stereo partly specified), for which the outcome in [42] was Active.
`O=C(O)CCc1ccc(-c2c([C@H]3C[C@H](c4ccc5ccccc5n4)C3)nc3c(N4CCOCC4)ccnn23)cc1`: in [1], the IC50 was determined as 2.4 nM.
Consider `O=C(O)c1ccc(-c2c(CCc3ccc4ccccc4n3)nc3c(N4CCOCC4)ccnn23)cc1`, for which the half-maximal inhibitory concentration (IC50) in series [1] was found to be 1.2 nM.
On to `O=C(O)C1CCN(c2ccc(-c3c(/C=C/c4ccc5ccccc5n4)nc4c(N5CCOCC5)ccnn34)cc2)CC1`, for which the half-inhibitory concentration (IC50) in [1] is 4.4 nM. The Kp at 2 h in series [40] was determined as 0.02.
In the case of `Oc1ncn(-c2ccc(-c3c(/C=C/c4ccc5ccccc5n4)nc4c(N5CCOCC5)ccnn34)cc2)n1`, the half-maximal inhibitory concentration (IC50) in series [1] was 7.4 nM.
With `O=C(O)C1CCN(c2ccc(-c3c([C@H]4C[C@H](c5ccc6ccccc6n5)C4)nc4c(N5CCOCC5)ccnn34)cc2)CC1`, the IC50 in series [1] was determined as 3.2 nM. Besides, in series [40], the Kp at 2 h was 0.02.
For `CS(=O)(=O)NC(=O)c1ccc(-c2c(C#Cc3ccc4ccccc4n3)nc3c(N4CCOCC4)ccnn23)cn1`, the half-inhibitory concentration (IC50) in series [1] came to 2.1 nM. For the same compound, the Kp at 2 h in [40] is 0.01.
As to `CC(=O)NS(=O)(=O)c1ccc(-c2c(/C=C/c3ccc4ccccc4n3)nc3c(N4CCOCC4)ccnn23)cc1`, the 50% inhibitory concentration (IC50) in series [1] is 2.2 nM.

These data come from ChEMBL document CHEMBL4477250, “Discovery of novel potent imidazo[1,2-b]pyridazine PDE10a inhibitors” (Bioorg Med Chem Lett, 2016).
